Key:
[1] = native PP; cited from earlier work
C57BL/6 male mice [2] = assay: Feeding pattern of fasted mice after ip injection of hPP or B-74 (Example II, FIG. 1); type: in vivo; conditions: 18 h fasted mice, B-74 100 nmol/mice, versus saline control
Procedure: To study the feeding patterns of animals treated with B-74, seven to eight week old C57BL/6 male mice (Harlan Laboratories, Indianapolis, Ind.) were individually housed in cages in a temperature controlled room (25° C.) under 12-hour light/dark cycles. Mice had free access to water and standard chow and were acclimatized to daily ip saline injections. […] Food was provided ten (10) minutes later, and the 2 and 4 hour food intake was monitored. Statistical significance was determined by ANOVA, with individual means being compared post-hoc by Tukey's corrected t-test.

C57BL/6 male mice [3] = assay: Preliminary dose study of B-48 on food intake of fasted mice (Example III); type: in vivo; conditions: ip, overnight (18 h) fasted mice, food intake monitored over 1-24 h; preliminary studies, results not shown
Procedure: To further study the feeding patterns of animals treated with B-48, experiments were performed in seven to eight week old C57BL/6 male mice (Harlan Laboratories, Indianapolis, Ind.) after acclimatization of mice for one week. More specifically, in preliminary studies, overnight (18 h) fasted animals were injected (ip) with 0.1 ml of saline or saline (0.1 ml) containing various concentrations of B-48 (0.025, 0.050, 0.100 or 0.150 μmol/mice) (n=8-10 per group). The mice were provided with a known quantity of chow 10 min later. The food intake was monitored over 1-24 h.

C57BL/6 male mice [4] = assay: Food intake of fasted mice after ip B-48 or B-74 alone or together (Example IV, FIGS. 2 and 3); type: in vivo; conditions: for Percentage of Inhibition of Food Intake Compared to Saline: B-48 vs. (B-48 + B-74), fasted mice, 0.050 μmol each compound
Procedure: To further compare the inhibitory effects of injecting (ip) 0.050 μmol of B-48 or B-74 alone or together (B-48+B-74) on the food intake by fasted mice, additional experiments were conducted.
Accordingly, to study the feeding patterns of animals treated with B-48 or B-74 alone or together (B-48+B-74), seven to eight week old C57BL/6 male mice (Harlan Laboratories, Indianapolis, Ind.) were individually housed in cages in a temperature controlled room (25° C.) under 12-hour light/dark cycles. The mice had free access to water and standard chow. After acclimatizing for one week, mice were fasted 18 hours before the experiment. The fasted animals were injected (ip) with 0.1 ml of saline or saline (0.1 ml) containing B-48 (0.050 μmol/mice) or B-74 (0.050 μmol/mice) alone or together, B-48+B-74 (0.100 μmol/mice, i.e. 0.050 μmol/mice per each compound), (n=8-10 per group). The mice were provided with a blown quantity of chow 10 minutes later. The food intake was monitored over 1-24 h. Statistical significance was determined by AN OVA, with individual means being compared post-hoc by Tukey's corrected t-test.

Substance	half-life [1]	2 h food intake (C57BL/6 male mice [2]; 2 h)	4 h food intake (C57BL/6 male mice [2]; 4 h)	minimum dose required to exhibit significant inhibitory effects on food intake (C57BL/6 male mice [3]) [μmol/mice]	Percentage of Inhibition of Food Intake Compared to Saline (C57BL/6 male mice [4]; 2 hours after injection) [%]	Percentage of Inhibition of Food Intake Compared to Saline (C57BL/6 male mice [4]; 4 hours after injection) [%]	Percentage of Inhibition of Food Intake Compared to Saline (C57BL/6 male mice [4]; 8 hours after injection) [%]	inhibition of food intake over the 24 h time period (C57BL/6 male mice [4]; 18 h fasted mice, 0.050 μmol/mice per each compound, alone or together)	Percentage of Inhibition of Food Intake Compared to Saline (C57BL/6 male mice [4]; 24 hours after injection) [%]
APLEPVYPGDNATPEQMAQYAADLRRYINMLTRPRY [PP]	about six	inhibited	inhibited	–	–	–	–	–	–
N-α-Ac[Nle^24,28,Trp^30,Nva^31,ψ^35/36]PYY(22-36)-NH2 (ASXRHYXNWXTRQRY; N-acetyl, C-amide, Nle, Nva, reduced CH2-NH bond; synthesized by man) [B-48, PYY(22-36) analog, Y2 receptor agonist; ψ is —CH2-NH—]	–	–	–	0.050	39	30	16	inhibited food intake to a greater extent than the control	7

From patent publication US8729227B2, “Compounds for control of appetite” (University of Cincinnati, priority 2006, dated 2014)
